The text below walks through data of paper PMC8359946, “Expanding the Substrate Scope of Nitrating Cytochrome P450 TxtE by Active Site Engineering of a Reductase Fusion” (Chembiochem, 2021).

As usually defined, the Kd is the concentration at which binding is half-saturated. Higher therefore signals a looser complex.

The target of experiment [1] is T1, TxtE (His6-TxtE-BM3R fusion) (Streptomyces scabiei, UniProt C9ZDC6).
T1 construct: His6-TxtE-BM3R fusion with the full length heme-reductase linker (27 aa) from CYP102A1
Put plainly: UV-Vis difference spectroscopy titration; purified-enzyme nitration assay. It counts as binding.

For experiment [2], the target named is T2, TxtE (His6-TxtE-BM3R fusion) (Streptomyces scabiei, UniProt C9ZDC6, R59C).
T2 construct: His6-TxtE-BM3R(R59C)
The experiment is described as follows: UV-Vis difference spectrum (type II); LC-MS nitration assay with purified enzyme. The experiment is classed as binding.

Regarding `N[C@@H](Cc1c[nH]c2ccccc12)C(=O)O` [L-tryptophan], in experiment [1], the Kd turned out to be 84 ± 2 µM.

As to `NCCc1c[nH]c2ccccc12` [compound 1, tryptamine], the “UV-Vis difference spectrum (type II); LC-MS nitration assay with purified enzyme” value in experiment [2] is “a similar spectrum is observed for binding of tryptamine to His6‐TxtE‐BMR3(R59C)”.
